The text below walks through data of patent US7521071B2, “Formulation of oral compositions comprising arsenic trioxide and methods of use thereof” (Versitech Limited, priority 2002, dated 2009).

The subject of series [1] is acute promyelocytic leukemia (APL). The note with it: cited from earlier work.
Series [2] in a line: Oral arsenic bioavailability: plasma and whole blood arsenic AUC after IV (day 1) and oral (day 2) As2O3. Type of series: in vivo, human patients. The protocol:
As diets containing seafood contain arsenic, each patient was instructed to refrain from seafood, preferably for at least one week before arsenic administration. On day-1 at 10 A.M., 10 mg of a standard, commercially available IV As2O3 formulation (from Ophthalmic Laboratories, Sydney, Australia) diluted in 100 ml of Sodium Chloride 0.9% solution was infused IV over 60 minutes. At 10 A.M. on day-2 (i.e., 24 hours after the start of the IV infusion), each patient swallowed a 10 mg dose (10 ml) of our oral AS2O3 solution and none were instructed to fast before or during their treatment.
Venous blood samples were drawn (11 ml) prior to As2O3 administration on day-1 and subsequently at the following times after the beginning of the IV infusion: 1, 2, 3, 4, 6, 8, 24, 25, 26, 27, 28, 30, 32 and 48 hours. […] The plasma from the lithium-heparin tube was freshly separated and both the plasma and whole blood samples were stored at 4° C. and subsequently analyzed in batches.
Plasma and whole blood arsenic concentration were assayed after the samples were deproteinized with 3% (w/v) trichloroacetic acid and then mixed with matrix modifiers. […] Concentrations are therefore expressed as nmol/L of arsenic above basal values. […]

Series [3] can be described thus: Arsenic in plasma and cellular fraction of blood at 48 hours. It is filed as in vivo, human patients. The protocol:
Venous blood samples were drawn (11 ml) prior to As2O3 administration on day-1 and subsequently at the following times after the beginning of the IV infusion: 1, 2, 3, 4, 6, 8, 24, 25, 26, 27, 28, 30, 32 and 48 hours. Five ml from each sample were collected in a non-gel lithium-heparin tube (for determination of plasma arsenic level) and 3 ml×2 in EDTA tubes (for determination of whole blood level). The plasma from the lithium-heparin tube was freshly separated and both the plasma and whole blood samples were stored at 4° C. and subsequently analyzed in batches.
Plasma and whole blood arsenic concentration were assayed after the samples were deproteinized with 3% (w/v) trichloroacetic acid and then mixed with matrix modifiers. The matrix modifiers contained magnesium nitrate (10 g/L), palladium chloride (6 g/L), and ammonium sulphite (20 g/L) in 0.5% Triton X 100. All chemicals were of analytical grade and were obtained from Sigma (St Louis, Mo.). The treated samples were assayed for total arsenic concentration in whole blood and plasma (which includes As2O3 per se and its metabolites) by graphite furnace atomic absorption spectrophotometry (Simma 6000, Perkin-Elmer, Norwalk, Conn.). Concentrations are therefore expressed as nmol/L of arsenic above basal values. The between-day coefficient of variation of this method was 7.5-9.6% for arsenic concentrations varying from 559 to 2169 nmol/L. The accuracy of this method was assessed by spiking known amounts of arsenic into patient samples; recovery being 97.3-101.3% for concentrations varying from 301 to 678 nmol/L.
The concentration of arsenic in the cellular fraction of blood (Cc) at 48 hours after the initial intravenous dose was calculated from the corresponding plasma (Cp) and whole blood (Cb) concentrations and the prevailing hematocrit (Hct) value as follows:
Nano mols of arsenic in the plasma from 1 liter of blood=Cp(1-Hct).
Accordingly, the mass of arsenic in the remaining cellular fraction in 1 liter of blood amounts to Cb-[Cp(1-Hct)].
Thus, the concentration (weight/volume) of arsenic per liter of the cellular fraction of the blood Cc={Cb-[Cp(1-Hct)]}/Hct.

Series [4] can be described thus: Safety monitoring in Example 1 (ECG, complications). Type of series: in vivo, human patients. As to the method:
Demographic features as well as details pertaining to each patient's disease state (including laboratory findings) were recorded throughout the period of study. Their subsequent clinical progress and pertinent laboratory results were also logged. The University of Hong Kong Faculty of Medicine Ethics Committee approved the entire protocol.
The demographic features, basal arsenic concentrations, disease status, and treatment outcomes of each patient are shown in Table 2.

For series [5], the system named is PML/RARA. As to the kind of experiment: Molecular monitoring of PML/RARA (PCR) in Example 2. It is filed as in vivo, human patients. The protocol: Twelve consecutive unselected patients with relapsed APL were treated with oral-As2O3 (see Table 4). The relapse was confirmed morphologically (>30% blasts+abnormal promyelocytes in the marrow) and cytogenetically (presence of t(15;17), with none of the cases showing additional karyotyic aberrations) or molecularly (presence of PML/RARA). The treatment was given with informed consent, and the protocol was approved by the University of Hong Kong Faculty of Medicine Ethics Committee.
However, PML/RARA became negative in 11 cases 3-6 months post-remission, and remained negative until the latest bone marrow examination. PCR in patient no. 1 became positive shortly before R2.

The conditions of series [6]: As2O3 powder; cited from earlier work.

Marks after values point to notes of the source that are not given here.

On to `S1[As]2S[As]3S[As]2S[As]13` [tetra-arsenic tetra-sulphide], for which, in series [1] (oral, Lu et al. Blood 2002), the “efficacy in APL” value is “highly efficacious in APL”.
With arsenic trioxide [As2O3], in series [2] (plasma), the “inter-individual variation in plasma AUCs among the nine patients” value was not above 5 fold. Moreover, the “inter-individual variation in whole blood AUCs among the nine patients” value in series [2] (whole blood) is listed as not above 10 fold. Moreover, in series [3] (48 hours, mean of 9 patients), the “Cellular Conc (Cc), Mean” value was determined as 286 nM/L and the “Plasma Conc (Cp), Mean” value worked out at 85 nM/L. Also, the “Difference, Mean” value in series [3] (48 hours, mean of 9 patients, p = 0.013 two tailed paired t-test) was 201* nM/L. The “48-hour concentrations in the cellular fraction of blood higher than corresponding plasma concentrations” value in series [3] (except in patient no 1) lay in the range of 2 to 3 fold. The “48-hour blood cell arsenic levels greater than in plasma” value in series [3] (on average, p=0.013) is given as 270%. In series [4] (all nine patients receiving As2O3), the “abnormal QTc prolongation on regularly performed ECGs” value is on record as “no instance of abnormal QTc prolongation”. For the same compound, in series [4] (nine patients), the unexpected complications result is reported as “No patient suffered unexpected complications”. In addition, the “cases in which PML/RARA became negative” value in series [5] (3-6 months post-remission, of 12 patients) came out at 11 cases. For the same compound, in series [5] (all patients), the “PML/RARA after As2O3-induced CR” value is “remained positive in all patients”. Besides, in series [6], the “solubility in cold water” value was “sparingly and extremely slowly soluble”. For the same compound, in series [1] (literature (Shen 1997, Soignet 1998, Niu 1999)), the “remissions induced in APL patients” value was “over 90%”.
